Measurements reported in patent US20050244387A1, “Entomopathogenic nematodes and methods of their use” (priority 2004, published 2005).

Columns and labels:
Type in all cases: in vivo
[1] = test system: Popillia japonica grubs; test: Large field plot trial 5, golf course fairway; conditions: Trial 5, Mansfield, Ohio, autumn 2001, nematodes 2.5 × 10^9 IJ/ha, imidacloprid 0.33 kg, trichlorfon 9.0 kg, applied September 11, data October 9
Protocol: (§1) Four field plot trials (Trials 5-8) were conducted on natural populations of P. japonica and C. borealis, or both species if they occurred together. Trial 5 was conducted on a naturally occurring mixed population of P. japonica and C. borealis grubs on a fairway at Wooldridge Woods Golf Course in Mansfield, Ohio in autumn 2001. Plots measuring 3-m by 3-m and separated by 0.9-m alleyways were arranged in a complete randomized block design with five replications/treatment. All treatments including imidacloprid (Merit 75WP) and trichlorfon (Dylox 6.2G) were applied on the morning of September 11 as curative treatments. Liquid applications were made with a sprinkling can at a volume of 8 liters/plot. Nematodes were applied at 2.5×10^9 IJ/ha. The trichlorfon granules were applied using a Gandy Drop Spreader (Gandy Company, Owatonna, Minn.). Grub population consisted of 30% second and 70% third instar P. japonica, and 100% third instar C. borealis. Turf consisted of 70% Kentucky bluegrass and 30% annual bluegrass, topography level, height 2.5 cm, and had no thatch.
(§2) Efficacy data from all field trials were obtained from six, 18×18×7 cm deep samples removed from the middle of each plot. Soil from each square was lifted with a spade and placed in a plastic dishpan and the number of live grubs counted by hand sifting the soil and turf.
(§3) Data on the total numbers of surviving grubs from each plot were subjected to the analysis of variance following the log10 […] transformation using Statsoft (1999) for each trial and means were separated by Tukey's mean separation test at P=0.05. In cylinder studies, the number of surviving grubs from all cylinders were pooled by plot. […]. For predictability analysis, all data on the mean percentage control of all white grubs were pooled by treatment and subjected to the analysis of variance using Statsoft (1999) following arcsine transformation. Only trichlorfon was included in these analyses as it is applied as a curative treatment just like the nematodes.

[2] = test system: Cyclocephala borealis grubs; test: Large field plot trial 5, golf course fairway; conditions: Trial 5, Mansfield, Ohio, autumn 2001; nematodes 2.5 × 10^9 IJ/ha, imidacloprid 0.33 kg, trichlorfon 9.0 kg; applied September 11, data October 9
Protocol: as §1, §2, §3

[3] = test system: second instar Popillia japonica grub populations; test: Microplot (cylinder) field trials, Trials 1-4; conditions: Ohio
Protocol: Microplot trials consisted of field plots in which PVC cylinders, 20 cm inside diameter, were inserted to a depth of about 7 cm. Four microplot trials (Trials 14) were conducted on second instar P. japonica grubs.
P. japonica adults were caged in the PVC cylinders to obtain grub populations following the methods described by Klein et al. (2000). Adult beetles were lured to Trece Catch Can traps (Trece Inc., Adair, Okla.) using a feeding lure containing PEG (phenol ethyl propionate, eugenol, and geraniol) and collected. Twice, at 1-week intervals, 30 adults consisting of approximately 50% females (measured volumetrically) were placed in each cylinder and covered with a nylon 20 mesh screen to induce egg laying within the cylinder area. The ovipositing beetles were fed fresh apple slices dusted with Brewer's yeast twice a week. Fourteen days after the initial caging, the nylon screens were removed. The developing grub population was monitored until the larvae reached the second instar, when all curative treatments were applied.
Trials 1, 2, and 4 were located at the Ohio Agricultural Research and Development Center, Wooster, Ohio whereas trial 3 was located at the TrueGreen Technical Center in Delaware, Ohio. Trials 1, 2, and 4 were set up on 1.5-m by 0.9-m plots, separated by 0.9 m alleyways, arranged in a complete randomized block design with four replications/treatment. For these trials, turf consisted of 70% Kentucky bluegrass and 30% dicot and monocot weed species, with level topography and no thatch was observed. Soil was a silt loam, with 2.8% OM, pH 6.0, 11.4 CEC. Trial 3 was conducted on Kentucky bluegrass lawn using 2.44 by 2.44 m plots arranged in a completely randomized block design with 5 replications/treatment. Soil was also a silt loam. Supplemental irrigation was applied prior to treatments to optimize beetle egg hatch and maintain actively growing turfgrass at both locations.
The nematodes were applied in 100 ml of water at 2.5×10^9 IJs/ha as a curative treatment to each cylinder except for trial 3, in which they were applied at 5.0×10^9 IJs/ha in 7.6 liters of water per plot with a hand held sprinkling can. Chemical insecticides were included for comparison in three of the trials. In trial 1, halofenozide was applied at 1.61 kg active ingredient (a.i.)/ha on Jul. 13, 2000 as a preventive treatment prior to P. japonica egg laying with a CO2 sprayer and Teejet 8015 nozzles at 2.81 kg/cm^2 (40 psi) delivering 1630 liters/ha. In trial 2, imidacloprid (Merit 75 WP) was applied at 0.33 kg a.i./ha on July 14 and trichlorfon granules (Dylox 6.2G) at 9.0 kg a.i./ha with a shaker on September 14. In trial 3, trichlorofon was applied as in trial 2. All plots received post-application irrigation (see Table 2).
as §2, §3

[4] = test system: mixed populations of third instar Popillia japonica and Cyclocephala borealis grubs; test: Large field plot trials 6 and 7, Kentucky bluegrass lawn; conditions: Ohio, autumn 2001, nematodes 2.5 × 10^9 IJs/ha, applied September 14, data October 9
Protocol: Trials 6 and 7 were conducted on stands of Kentucky bluegrass naturally infested with mixed populations of mostly third instar P. japonica and C. borealis in autumn 2001. The 1.2 by 1.2-m plots were located at the TrueGreen Technical Center in Delaware, Ohio. The nematodes were applied at 2.5×10^9 IJs/ha in trial 6 and at 5.0×10^9 IJ/ha in trial 7 with a CO2 backpack sprayer with a 10 cm boom fitted with three 8005 LP flat fan nozzles at a volume of 813 liters/ha. Plots were arranged in a randomized complete block design with 5 replications/treatment for both trials.
as §2, §3

[5] = test system: white grubs, Popillia japonica and Cyclocephala borealis; test: Pooled analysis of field trials (irrigation plus rainfall, predictability); conditions: nematodes at 2.5×10^9 IJs/ha, trichlorfon curatively at standard rate; mean ± S.E.
Source text: as §3

[6] = Trial 2, 2001 Wooster, nematodes 2.5 × 10^9 IJs/ha Sept 12, imidacloprid 0.34 kg July 14, trichlorfon 9.0 kg Sept 12, observed Oct 10
[7] = Trial 3, 2001 Columbus, nematodes 5.0 × 10^9 IJs/ha, trichlorfon 9.0 kg, applied Sept 14, observed Oct 9
[8] = Trial 6, Columbus, trichlorfon 9.0 kg/ha
[9] = Trial 7, Columbus, trichlorfon standard rate 9.0 kg
[10] = Trial 1, 2000 Wooster, nematodes 2.5 × 10^9 IJs/ha applied Sept 13, halofenozide 1.61 kg a.i./ha applied July 13, observed Oct 5

SMILES	P. japonica % Control [1]	P. japonica Mean grubs/plot [1]	P. japonica % Control ([1]; listed as IMIDACLOPRID (MERIT 75 WP)) [%]	C. borealis % control [2] [%]	C. borealis Mean grubs/plot [2]	% Control [3, 6] [%]	Mean grubs/plot [3, 6]	% Control [3, 7] [%]	Mean grubs/plot [3, 7] [ab grubs/plot]	% Control [4, 8] [%]	Mean grubs/plot [4, 8] [a grubs/plot]	% Control [4, 9] [%]	Mean grubs/plot [4, 9] [b grubs/plot]	overall percent white grub control, pooled data across all trials [5] [%]	% Control [3, 10] [%]	Mean grubs/plot [3, 10] [b grubs/plot]
O=[N+]([O-])NC1=NCCN1Cc1ccc(Cl)nc1 [Imidacloprid]	no effect	17.8 a grubs/plot	0	47	3.8 ab grubs/plot	98	0.3 d grubs/plot	–	–	–	–	–	–	–	–	–
COP(=O)(OC)C(O)C(Cl)(Cl)Cl (stereo not shown) [Trichlorfon]	57%	7.6 c grubs/plot	–	47	3.8 b grubs/plot	92	1.3 cd grubs/plot	29	6.4	0	11.7	77	4.0	50.33±13.5	–	–
CC(C)(C)N(NC(=O)c1ccc(Cl)cc1)C(=O)c1ccccc1 [Halofenozide]	–	–	–	–	–	–	–	–	–	–	–	–	–	–	98	0.7
